The results in this text go back to patent US5126341A, “Anti-inflammatory 1,8-naphthyridin-2-one derivatives” (Kyowa Hakko Kogyo Co., Ltd., priority 1990, dated 1992).

Where two headings read alike, the source gives them in different places.

Data set [1] deals with zymosan-induced paw edema. The data set is described as follows: Effect on zymosan-induced paw edema. In kind it is in vivo, male Wistar rats. The settings on record: rat, 100 mg/kg p.o., 1 hour before 1% zymosan; paw volume 4 hours after injection. As for the experimental part: b) Effect on zymosan-induced paw edema
The experiment was carried out in the same manner as in the carrageenin-induced paw edema test except that 1% zymosan (Zymosan A®; Sigma Chemical Co.) was used in place of 1% carrageenin and the right hind paw volume was measured 4 hours after the injection of the edema-inducing substance instead of 3 hours. The swelling rate and the suppression rate were calculated by equation 1 and equation 2, respectively.

In data set [2] the test system is Type III allergic reaction-induced pleurisy. The data set can be described thus: Effect on Type III allergic reaction-induced pleurisy. In kind it is in vivo, male Wistar rats. The conditions noted are these: po, 4.5 h, rat, 100 mg/kg p.o., four and a half hours after induction of pleurisy. The procedure: d) Effect on Type III allergic reaction-induced pleurisy
IgG was purified from rabbit anti-OA serum prepared in advance by the method of Koda et al. [Folia Pharmacol., Japon 66, 237, (1970)] in the following manner.
A saturated solution of ammonium sulfate (half volume of the serum) was added to the anti-OA serum, and the mixture was left for one hour at 4° C. The precipitate was taken by centrifugation (3,000 rpm, 30 min, 4° C.) and dissolved in phosphate buffered saline of Dulbecco. Then, ammonium sulfate fractionation was carried out three times in the same manner as above, whereby a purified IgG fraction was obtained.
Male Wistar rats weighing 225-250 g were pre-bred for several days and fasted overnight prior to the experiment The test compound (100 mg/kg) was orally administered to the animals, and after 30 minutes, IgG of rabbit anti-OA (0.2 ml, 5 mg protein/ml) was injected into the pleural cavity of the animals under anesthesia with ether. Thirty minutes after the injection of IgG, OA (albumin egg grade III; Sigma Chemical Co.) was intravenously injected into the animals as an inducer of pleurisy. After two hours, Evans Blue (25 mg/kg) was intravenously injected, and four and a half hours after the induction of pleurisy, the animals were killed by bleeding.
Then, an exudate in the pleural cavity was obtained, and the volume of the exudate was measured. The pleural cavity was rinsed with 5 ml of physiological saline and the rinsings were added to the exudate. The number of infiltrated cells in the mixture was counted and the volume of the dye in the mixture was determined by the absorption at 625 nm [Agent Actions., 25, 326 (1988)]. The suppression rates for the volume of the exudate, the number of infiltrated cells and the volume of the dye in the pleural cavity were calculated by the following equation 3. [formula]
S.V: the value obtained with the group administered with the test compound and in which pleurisy is induced
N.V: the value obtained with the group in which pleurisy is not induced
P.V: the value obtained with the group administered with no test compound and in which pleurisy is induced

A further data set has as its system male dd-mice. The conditions noted are these: mouse, in vivo, 10080 min; for Acute toxicity (MLD, Minimum Lethal Dose) i.p.: ip; for Acute toxicity (MLD, Minimum Lethal Dose) p.o.: po. The procedure:
The test compounds were orally or intraperitoneally administered to male dd-mice weighing 20 to 25 g. MLD (Minimum Lethal Dose) was determined by observing the mortality for seven days after the administration.

Data set [3] relates to carrageenin-induced paw edema. The data set can be described thus: Effect on carrageenin-induced paw edema. In kind it is in vivo, male Wistar rats. The conditions noted are these: po; rat, 100 mg/kg p.o., 1 hour before 1% carrageenin; paw volume 3 hours after injection; read-out: Suppression rate for paw swelling, (a) carrageenin-induced edema. The procedure:
a) Effect on carrageenin-induced paw edema
Male Wistar rats weighing 150 to 160 g (n=3-5) were used in the experiment. After the right hind paw volume was measured with the plethysmograph (TK-101; Unicom Co., Ltd.), the test compound (100 mg/kg) was orally administered. After one hour, 0.1 ml of 1 % carrageenin (λ-carrageenin; PICNIN-A®, Zushi Kagaku Co., Ltd.) was subcutaneously injected into the right hind paw footpad. Three hours after the injection of carrageenin, the right hind paw volume was measured and the swelling rate was determined by the following equation 1. [formula]
Vt: the right hind paw volume measured 3 hours after the injection of carrageenin
Vo: the right hind paw volume measured prior to the injection of carrageenin
The suppression rate was calculated by the following equation 2. [formula]
Swt: the swelling rate of the group administered with the test compound
Swc: the swelling rate of the control group administered with no test compound
(Carrageenan injected into the paw causes an acute inflammation.)

For data set [4], the system named is arachidonic acid-induced paw edema. The data set is described as follows: Arachidonic acid-induced paw edema. In kind it is in vivo, male Wistar rats. The settings on record: rat, 100 mg/kg p.o., 1 hour before 0.5% arachidonic acid; paw volume one hour after injection. The procedure:
c) Arachidonic acid-induced paw edema
The experiment was carried out in the same manner as in the carrageenin-induced paw edema test except that 0.5% arachidonic acid was used in place of 1% carrageenin and the right hind paw volume was measured one hour after the injection of the edema-inducing substance instead of 3 hours. The swelling rate and the suppression rate were calculated by equation 1 and equation 2, respectively.

The mark [5] stands for this setting: Evans Blue 25 mg/kg i.v., absorption at 625 nm, read-out: Suppression rate, volume of dye in the exudate.
[6] abbreviates: read-out: Suppression rate, volume of exudate.
The mark [7] stands for this setting: read-out: Suppression rate, number of infiltrated cells in the exudate.

For the compound `CCCCNC(=O)c1c(O)c2cccnc2n(-c2ccccc2)c1=O` [Compound 1, N-(n-Butyl)-4-hydroxy-2-oxo-1-phenyl-1H-1,8-naphthyridine-3-carboxamide], the “Suppression rate for paw swelling, (b) zymosan-induced edema” value in data set [1] came out at 20.5%.

Consider `CNC(=O)c1c(O)c2cccnc2n(-c2ccccc2)c1=O` [Compound 2, 4-Hydroxy-N-methyl-2-oxo-1-phenyl-1H-1,8-naphthyridine-3-carboxamide], for which the results for the inhibition in vivo at 100 mg/kg in data set [2] (setting [5]) and in data set [2] (setting [6]) were 28.3% and 27.2%, respectively.

`CN(C)NC(=O)c1c(O)c2cccnc2n(-c2ccccc2)c1=O` [Compound 6, N-Dimethylamino-4-hydroxy-2-oxo-1-phenyl-1H-1,8-naphthyridine-3-carboxamide]: in data set [1], the “Suppression rate for paw swelling, (b) zymosan-induced edema” value was 27.3%. In the data set with male dd-mice, the “Acute toxicity (MLD, Minimum Lethal Dose) i.p.” value is reported as over 100 mg/kg and the “Acute toxicity (MLD, Minimum Lethal Dose) p.o.” value was over 300 mg/kg. Moreover, in data set [3], the inhibition in vivo at 100 mg/kg came to 31.7%.

As for `CN(C)CCNC(=O)c1c(O)c2cccnc2n(-c2ccccc2)c1=O` [Compound 7, N-(2-Dimethylaminoethyl)-4-hydroxy-2-oxo-1-phenyl-1H-1,8-naphthyridine-3-carboxamide], in the data set on male dd-mice, the “Acute toxicity (MLD, Minimum Lethal Dose) i.p.” value was over 100 mg/kg and the “Acute toxicity (MLD, Minimum Lethal Dose) p.o.” value is over 300 mg/kg. Also, the inhibition in vivo at 100 mg/kg in data set [3] turned out to be 23.2%.

For `O=C(Nc1cccc(Cl)c1)c1c(O)c2cccnc2n(-c2ccccc2)c1=O` [Compound 8, N-(3-Chlorophenyl)-4-hydroxy-2-oxo-1-phenyl-1H-1,8-naphthyridine-3-carboxamide], the inhibition in vivo at 100 mg/kg in data set [2] (setting [7]) turned out to be 21.7%.

Turning to `Cc1cccc(NC(=O)c2c(O)c3cccnc3n(-c3ccccc3)c2=O)c1` [Compound 9, 4-Hydroxy-N-(3-methylphenyl)-2-oxo-1-phenyl-1H-1,8-naphthyridine-3-carboxamide], the inhibition in vivo at 100 mg/kg in data set [2] (setting [7]) came to 28.5%; in data set [2] (setting [6]), 27.3%; in data set [3], 25.2%. Besides, in the data set with male dd-mice, the “Acute toxicity (MLD, Minimum Lethal Dose) i.p.” value was over 100 mg/kg. Besides, in the data set with male dd-mice, the “Acute toxicity (MLD, Minimum Lethal Dose) p.o.” value is reported as over 300 mg/kg.

On to `O=C(Nc1cccc([N+](=O)[O-])c1)c1c(O)c2cccnc2n(-c2ccccc2)c1=O` [Compound 11, 4-Hydroxy-N-(3-nitrophenyl)-2-oxo-1-phenyl-1H-1,8-naphthyridine-3-carboxamide], for which, in data set [2] (setting [5]), the inhibition in vivo at 100 mg/kg was 37.2%. Further, the inhibition in vivo at 100 mg/kg in data set [2] (setting [6]) is 22.1%. Further, in the data set with male dd-mice, the “Acute toxicity (MLD, Minimum Lethal Dose) i.p.” value is given as over 100 mg/kg and the “Acute toxicity (MLD, Minimum Lethal Dose) p.o.” value is listed as over 300 mg/kg.

Regarding `O=C(Nc1nccs1)c1c(O)c2cccnc2n(-c2ccccc2)c1=O` [Compound 12, 4-Hydroxy-2-oxo-1-phenyl-N-(2-thiazolyl)-1H-1,8-naphthyridine-3-carboxamide], in data set [2] (setting [5]), the inhibition in vivo at 100 mg/kg came out at 24%.

In the case of `O=C(Nc1nc2ccccc2s1)c1c(O)c2cccnc2n(-c2ccccc2)c1=O` [Compound 13, N-(2-Benzothiazolyl)-4-hydroxy-2-oxo-1-phenyl-1H-1,8-naphthyridine-3-carboxamide], the inhibition in vivo at 100 mg/kg was found to be 25.8% in data set [2] (setting [5]) and 28.9% in data set [2] (setting [6]).

`COc1ccc(NC(=O)c2c(O)c3cccnc3n(-c3ccccc3)c2=O)cc1` [Compound 16, 4-Hydroxy-N-(4-methoxyphenyl)-2-oxo-1-phenyl-1H-1,8-naphthyridine-3-carboxamide]: in data set [2] (setting [7]), the inhibition in vivo at 100 mg/kg came to 25.4%.

With `Cc1ccc(NC(=O)c2c(O)c3cccnc3n(-c3ccccc3)c2=O)cc1` [Compound 17, 4-Hydroxy-N-(4-methylphenyl)-2-oxo-1-phenyl-1H-1,8-naphthyridine-3-carboxamide], the inhibition in vivo at 100 mg/kg stood at 21.5% in data set [2] (setting [7]) and 22.4% in data set [2] (setting [6]).

In the case of `COc1cccc(NC(=O)c2c(O)c3cccnc3n(-c3ccccc3)c2=O)c1` [Compound 18, 4-Hydroxy-N-(3-methoxyphenyl)-2-oxo-1-phenyl-1H-1,8-naphthyridine-3-carboxamide], the inhibition in vivo at 100 mg/kg in data set [2] (setting [7]) worked out at 22.1%; in data set [2] (setting [6]), 26.9%.

`COc1ccccc1NC(=O)c1c(O)c2cccnc2n(-c2ccccc2)c1=O` [Compound 19, 4-Hydroxy-N-(2-methoxyphenyl)-2-oxo-1-phenyl-1H-1,8-naphthyridine-3-carboxamide]: the inhibition in vivo at 100 mg/kg in data set [2] (setting [7]) is 26.8%. Besides, in the data set on male dd-mice, the “Acute toxicity (MLD, Minimum Lethal Dose) i.p.” value is listed as over 100 mg/kg and the “Acute toxicity (MLD, Minimum Lethal Dose) p.o.” value is over 300 mg/kg. Further, the inhibition in vivo at 100 mg/kg in data set [3] was found to be 34.2%.

As for `O=C(NC1CCN(Cc2ccccc2)CC1)c1c(O)c2cccnc2n(-c2ccccc2)c1=O` [Compound 21, N-(1-Benzylpiperidin-4-yl)-4-hydroxy-2-oxo-1-phenyl-1H-1,8-naphthyridine-3-carboxamide], the inhibition in vivo at 100 mg/kg in data set [2] (setting [5]) was 50.2%; in data set [2] (setting [7]), 22.1%; in data set [2] (setting [6]), 32.4%.

Regarding `O=C(NC1=NCCS1)c1c(O)c2cccnc2n(-c2ccccc2)c1=O` [Compound 22, 4-Hydroxy-2-oxo-1-phenyl-N-(thiazolin-2-yl)-1H-1,8-naphthyridine-3-carboxamide], the inhibition in vivo at 100 mg/kg in data set [2] (setting [5]) is 51%; in data set [2] (setting [7]), 34.6%; in data set [2] (setting [6]), 89.2%. Moreover, in data set [4], the “Suppression rate for paw swelling, (c) arachidonic acid-induced edema” value amounted to 33.4%. The “Acute toxicity (MLD, Minimum Lethal Dose) i.p.” value in the data set with male dd-mice is over 100 mg/kg. The “Acute toxicity (MLD, Minimum Lethal Dose) p.o.” value with male dd-mice is over 300 mg/kg.

As to `O=C(Nc1cnccn1)c1c(O)c2cccnc2n(-c2ccccc2)c1=O` [Compound 23, 4-Hydroxy-2-oxo-1-phenyl-N-(pyrazin-2-yl)-1H-1,8-naphthyridine-3-carboxamide], the inhibition in vivo at 100 mg/kg in data set [2] (setting [5]) is 43.2%; in data set [2] (setting [7]) it was 26.7%; in data set [2] (setting [6]), 24%; in data set [3], 22.7%. The “Suppression rate for paw swelling, (b) zymosan-induced edema” value in data set [1] is reported as 22.2%. Besides, in the data set with male dd-mice, the “Acute toxicity (MLD, Minimum Lethal Dose) i.p.” value is given as over 100 mg/kg. For the same compound, the “Acute toxicity (MLD, Minimum Lethal Dose) p.o.” value with male dd-mice is given as over 300 mg/kg.

Consider `CCc1nnc(NC(=O)c2c(O)c3cccnc3n(-c3ccccc3)c2=O)s1` [Compound 24, 4-Hydroxy-2-oxo-1-phenyl-N-(5-ethyl-1,3,4-thiadiazol-2-yl)-1H-1,8-naphthyridine-3-carboxamide], for which the figures for the inhibition in vivo at 100 mg/kg in data set [2] (setting [5]) and in data set [2] (setting [6]) were 32.1% and 29.7%, respectively.

Take `O=C(NN1CCOCC1)c1c(O)c2cccnc2n(-c2ccccc2)c1=O` [Compound 27, 4-Hydroxy-N-morpholino-2-oxo-1-phenyl-1H-1,8-naphthyridine-3-carboxamide]: in data set [2] (setting [5]), the inhibition in vivo at 100 mg/kg worked out at 23.6%.

Turning to `O=C(NCc1cccnc1)c1c(O)c2cccnc2n(-c2ccccc2)c1=O` [Compound 29, 4-Hydroxy-2-oxo-1-phenyl-N-(3-pyridylmethyl)-1H-1,8-naphthyridine-3-carboxamide], the “Suppression rate for paw swelling, (c) arachidonic acid-induced edema” value in data set [4] came to 33.3%. Also, in the data set on male dd-mice, the “Acute toxicity (MLD, Minimum Lethal Dose) i.p.” value is listed as over 100 mg/kg and the “Acute toxicity (MLD, Minimum Lethal Dose) p.o.” value was over 300 mg/kg.
